Like-named read-outs stand apart in the source and are kept apart here.
Key:
CE81T/VGH cells [1] = assay: Cell cycle analysis by flow cytometry (propidium iodine); type: cell-based, human
Experimental: FIG. 1 illustrates the effects of CH-205-O (i.e., armillaridin) on cell cycle distribution in CE81T/VGH cells in accordance with one embodiment of this invention, in which upper panels represented results obtained from CE81T/VGH cells treated with 0 (panel A), 10 μM (panel B) or 20 μM (panel C) of CH-205-O for 48 hours, and lower panels represented results obtained from CE81T/VGH cells treated with 0 (panel D), 10 μM (panel E) or 20 μM (panel F) of CH-205-O for 72 hours;
Cultured cells with or without pre-treatment of the compound of this invention (i.e., armillaridin at 10 or 20 μM for 48 or 72 hours) were harvested from the cultured media and fixed by incubating with 75% iced cold ethanol at 4° C. for at least over night. The fixed cells were then warmed up to room temperature and treated with RNAase A for about 30 min. Precipitated cells were collected by centrifugation and re-suspended in a buffer solution containing propidium iodine (20 μg/ml) before being subject to flow cytometry analysis, where cell numbers at respective cell cycles were determined.

[2] = test system: BE-3 human esophageal adenocarcinoma cell line; assay: Trypan blue exclusion test, cell viability; type: cell-based; conditions: BE-3, 72 hours, read-out: IC50 (concentration required to reduce viability by 50%)
Experimental: (§1) Cell lines used in the present disclosure include human esophageal squamous carcinoma cell lines CE81T/VGH and TE-2, and human esophageal adenocarcinoma cell lines BE-3 and SKGT-4. Each cell lines were cultured and maintained in Dulbecco's modified Eagle media (DMEM) supplemented with 10% fetal calf serum, 100 IU/ml penicillin, 100 μg/ml streptomycin, and 2 mM glutamine in 5% CO2 at 37° C.
(§2) The dye exclusion test is used to determine the number of viable cells present in a cell suspension. […] In this test, the cells were first treated with a test compound (i.e., CH-205-O) for a certain period of time (e.g., 72 hours), then the cells were harvested and re-suspended in suitable buffer solution. The cell suspension was then mixed with trypan blue dye and then visually examined to determine whether cells had taken up or excluded the dye. A viable cell will have a clear cytoplasm, whereas a nonviable cell will have a blue cytoplasm. The concentration required to reduce viability by 50% (IC50) after 72 hours was extrapolated from the dose-response curves by different concentrations of the test compound using a second-order polynomial regression model and analyzing with SigmaPlot Software (Systat Software Inc., San Jose, Calif.).
(§3) The human esophageal cancer cell lines including squamous cell carcinoma cell lines CE81T/VGH and TE-2, and adenocarcinoma cell lines BE-3 and SKGT-4 were cultured and maintained by procedures described above in the “Materials and Methods” Section. Anti-proliferative activity of armillaridin (hereafter “CH-205-O”) on each cell lines was assessed by cell viability and cell cycle analysis.

[3] = test system: TE-2 human esophageal squamous carcinoma cell line; assay: Trypan blue exclusion test, cell viability; type: cell-based; conditions: TE-2, 72 hours, read-out: IC50 (concentration required to reduce viability by 50%)
Experimental: as §1, §2, §3

[4] = test system: SKGT-4 human esophageal adenocarcinoma cell line; assay: Trypan blue exclusion test, cell viability; type: cell-based; conditions: SKGT-4, 72 hours, read-out: IC50 (concentration required to reduce viability by 50%)
Experimental: as §1, §2, §3

[5] = test system: CE81T/VGH human esophageal squamous carcinoma cell line; assay: Trypan blue exclusion test, cell viability; type: cell-based; conditions: read-out: IC50 (concentration required to reduce viability by 50%)
Experimental: as §1, §2, §3

CE81T/VGH cells [6] = assay: Radiation treatment and clonogenic assay; type: cell-based, human; conditions: pre-treatment 2.5 or 5 μM for 24 hours, then 0-4 Gy radiation, colonies counted after 14 days
Experimental: Approximately 100 variable tumor cells were respectively plated onto 35-mm six-well culture dishes and were allowed to grow in DMEM medium contained 10% FCS mixed with 0, 1.25, 2.5 or 5 μM of the test compound of this disclosure (i.e., CH-205-O), and the test compound-treated cells were continued culture for 24 hours. The test compound was then washed out, and cells were subject to radiation treatment. Specifically, 6 MeV electron beam energy was delivered by a linear accelerator (Clinac 1800, Varian Associates, Inc., Palo Alto, Calif., USA) with a rate of 2.4 Gy/min at various dose including 0, 0.5, 1, 2, 3 and 4 Gy in a single fraction. Full electron equilibrium was ensured for each fraction by a parallel plate PR-60C ionization chamber (CAPINTEL, Inc., Ramsey, N.Y., USA).
After radiation treatment, cells were returned to the culture for another 14 days; then were stained with 3% crystal violet and the numbers of colony (≧50 cells) were counted.
To this purpose, cancerous cells were pre-treated with 1.25, 2.5 or 5 μM CH-205-O, before being treated with various doses of radiation in accordance with procedures described in “Materials and Methods” section. […]

[7] = test system: CE81T/VGH cells xenografted esophageal tumor; assay: Xenograft esophageal cancer mice model; type: in vivo, Balb/c nude mice
Experimental: For primary esophageal cancer model, total of 9 Balb/c nude mice at the age of 6 weeks were randomly divided into 3 groups, with 3 mice in each group. To start the experiment, each mice were injected with 5×10^5 CE81T/VGH cells subcutaneously to generate esophageal cancer on day 0, and then returned to culture for another 21 days to allow tumor progression. To evaluate the efficacy of the test compound, mice in the test group were given 3 doses of the test compound (CH-205-O at 80 mg/Kg/dose; or cisplatin at 2.5 mg/Kg/dose) every week, and total of […] were given during a period of 20 days after treatment started on day 22. Tumor sizes were measured using calipers. The body weight and the white blood cell counts of each mice were respectively recorded every day throughout the experiment. Tumor volume was calculated using the formula: volume=width^2×length×0.52.
Effects of CH-205-O of this disclosure on mice grafted with CE81T/VGH cells were investigated by measuring the grafted tumor volume; body weight and the number of white blood cells of the mice in accordance with steps described in “Materials and Methods” section. Results are illustrated in FIG. 3.

[8] = long-term exposure, 80 mg/Kg/dose, 12 doses

COc1cc(O)c(C(=O)O[C@@H]2C[C@]3(C)C4CC(C)(C)CC4C=C(C=O)[C@]23O)c(C)c1Cl (stereo partly drawn) [CH-205-O, (2R,2aS,7bR)-3-formyl-2,2a,4a,5,6,7,7a,7b-octahydro-2a-hydroxy-6,6,7b-trimethyl-1H-cyclobuta[e]inden-2-yl 3-chloro-6-hydroxy-4-methoxy-2-methylbenzoate]
Cell cycle arrest at G2/M phase (CE81T/VGH cells [1]; 10 or 20 μM for 48 hours, CE81T/VGH cells): capable of arresting the CE81T/VGH cells at G2/M phase in a dose-dependent manner | sub-G1 population of cells (CE81T/VGH cells [1]; 10 or 20 μM, treatment for 72 hours, CE81T/VGH cells): induce an increase in the sub-G1 population of cells | Esophageal cancerous cells arrested at G2/M cycle (CE81T/VGH cells [1]; one specific example): at least 50% | IC50 [2]: 5.4 µM | IC50 ([2]; Homo sapiens, 72 h): ~5 µM | IC50 ([3]; Homo sapiens, 72 h): ~3 µM | IC50 [3]: 3.4 µM | IC50 ([4]; Homo sapiens, SKGT4, 72 h): ~5 µM | IC50 [4]: 5.5 µM | IC50 ([5]; 72 hours): 6.9 µM | IC50 ([5]; Homo sapiens, CE81T, 72 h): ~7 µM | Susceptibility of CE81T/VGH cells to radiation treatment (colony formation) (CE81T/VGH cells [6]): capable of enhancing the susceptibility of CE81T/VGH cells to radiation treatment | Volume of the xenografted esophageal tumor ([7]; 80 mg/Kg/dose, at least 12 doses, compared with control mice (vehicle only)): effective in reducing the volume of the xenografted esophageal tumor significantly | Body weight of the mice [7, 8]: does not affect | Number of white blood cells of the mice [7, 8]: does not affect | Reduction of the size of the cancer as compared with control ([7]; long-term exposure, at least 12 doses within 20 days, 3 doses per week): at least 50%
